These results are taken from patent US20170121344A1 (Siga Technologies, Inc., priority 2009, published 2017).

For one test, the system named is DENV-1. The test can be described thus: Viral yield assay against DENV-1 in Vero cells. The format is cell-based. The following applies: Dengue virus, DENV1, viral yield assay. The gist of the method: (§1)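 Virus yield, titered on Vero cells from cultures harvested at 48 h post infection, gave the EC50. Cultures were infected at MOI 0.1 with dengue-2 and treated with compound or DMSO at 37° C. DENV-1 and DENV-4 were determined similarly.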

In a further test the test system is DENV-3. The test can be described thus: Viral yield assay against DENV-3 in Vero cells. The format is cell-based. The following applies: Dengue virus, DENV3, viral yield assay. The gist of the method:
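Infect Vero cells with virus (MOI 0.1), add compound or DMSO, incubate at 37° C, collect progeny at 48 hours post infection, then titrate on Vero cells to obtain EC50.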

Another test relates to DENV-4. Briefly: Viral yield assay against DENV-4 in Vero cells. The format is cell-based. The following applies: Dengue virus, DENV4, viral yield assay. A digest of the protocol: as §1
In test [1] the test system is Dengue-2 (Strain New Guinea C). Briefly: Viral yield assay against Dengue-2 in Vero cells. The format is cell-based, Dengue virus. The following applies: Dengue virus, DENV2; viral yield assay, Vero cells, MOI 0.1, 48 hours post infection; read-out: Activity (EC50 in μM) DENV-2. The gist of the method:
as §1

Consider `COc1cccc(-c2ccc3c(N)c(C(=O)Nc4cccc(Cl)c4C)sc3n2)c1` [Compound 543, 3-amino-N-(3-chloro-2-methyl-phenyl)-6-(3-methoxyphenyl)thieno[2,3-b] pyridine-2-carboxamide], for which the EC50 (in the test on DENV-1; with DENV-3; with DENV-4; in test [1]) was less than 5 µM in each case.

For the molecule `COc1ccc(-c2ccc3c(N)c(C(=O)Nc4ccc(C)cc4Br)sc3n2)cc1OC` [Compound 576, 3-amino-N-(2-bromo-4-methyl-phenyl)-6-(3,4-dimethoxyphenyl)thieno[2,3-b] pyridine-2-carboxamide], the EC50 (in the test on DENV-1; in the test on DENV-3; in the test on DENV-4; in test [1]) was less than 5 µM in each case.

Take `Nc1c(C(=O)N(CCC(=O)O)c2cccc(C(F)(F)F)c2)sc2nc(-c3cccs3)ccc12` [Compound 327, 3-[N-[3-amino-6-(2-thienyl)thieno[2,3-b]pyridine-2-carbonyl]-3-(trifluoromethyl)-anilino]propanoic acid]: the 50% effective concentration (EC50) (in the test on DENV-1; in the test on DENV-3; in the test with DENV-4; in test [1]) was less than 5 µM throughout.

As to `Nc1c(C(=O)Nc2ccc(F)c(F)c2)sc2nc(-c3cccs3)ccc12` [Compound 461, 3-amino-N-(3,4-difluorophenyl)-6-(2-thienyl)thieno[2,3-b]pyridine-2-carboxamide], the EC50 (in the test with DENV-1; in the test on DENV-3; with DENV-4; in test [1]) was less than 5 µM each time.

As for `Nc1c(C(=O)Nc2cccc(Cl)c2)sc2nc(-c3ccc(Cl)cc3)ccc12` [Compound 344, 3-amino-N-(3-chlorophenyl)-6-(4-chloro-phenyl)thieno[2,3-b]pyridine-2-carboxamide], the EC50 (in the test with DENV-1; in the test with DENV-3; with DENV-4; in test [1]) was less than 5 µM in each case.

`Cc1ccc(NC(=O)c2sc3nc(-c4ccc(F)cc4)ccc3c2N)cc1F` [Compound 612, 3-amino-N-(3-fluoro-4-methyl-phenyl)-6-(4-fluorophenyl)thieno[2,3-b]pyridine-2-carboxamide]: the 50% effective concentration (EC50) (with DENV-1; with DENV-3; in the test with DENV-4; in test [1]) was less than 5 µM each time.

With `Nc1c(C(=O)Nc2ccccc2Br)sc2nc(-c3cccs3)ccc12` [Compound 462, 3-amino-N-(2-bromophenyl)-6-(2-thienyl)thieno[2,3-b]pyridine-2-carboxamide], the EC50 (in the test with DENV-1; in the test on DENV-3; in the test on DENV-4; in test [1]) was less than 5 µM each time.

For `COc1ccc(-c2ccc3c(N)c(C(=O)Nc4ccc(C)c(C)c4)sc3n2)cc1OC` [Compound 577, 3-amino-6-(3,4-dimethoxyphenyl)-N-(3,4-dimethylphenyl)thieno[2,3-b] pyridine-2-carboxamide], the EC50 (with DENV-1; in the test on DENV-3; with DENV-4; in test [1]) was less than 5 µM each time.

On to `Nc1c(C(=O)Nc2ccccc2)sc2nc(-c3ccc(Cl)cc3)ccc12` [Compound 631, 3-amino-6-(4-chlorophenyl)-N-phenyl-thieno[2,3-b]pyridine-2-carboxamide], for which the half-maximal effective concentration (EC50) (in the test on DENV-1; with DENV-3; with DENV-4; in test [1]) was less than 5 µM throughout.

Take `COc1ccc(-c2ccc3c(N)c(C(=O)Nc4ccc(Cl)cc4F)sc3n2)cc1OC` [Compound 534, 3-amino-N-(4-chloro-2-fluoro-phenyl)-6-(3,4-dimethoxyphenyl)thieno[2,3-b] pyridine-2-carboxamide]: the EC50 (in the test on DENV-1; in the test with DENV-3; in the test on DENV-4; in test [1]) was less than 5 µM each time.

With `Nc1c(C(=O)Nc2ccc(OC(F)F)cc2)sc2nc(-c3cccc(OC(F)F)c3)ccc12` [Compound 345, 3-amino-6-[3-(difluoromethoxy)phenyl]-N-[4-(difluoromethoxy)phenyl]thieno[2,3-b]pyridine-2-carboxamide], the concentration giving a half-maximal response (EC50) (in the test on DENV-1; with DENV-3; in the test on DENV-4; in test [1]) was less than 5 µM each time.

For `COc1cccc(-c2ccc3c(N)c(C(=O)Nc4ccccc4Oc4ccccc4)sc3n2)c1` [Compound 522, 3-amino-6-(3-methoxyphenyl)-N-(2-phenoxyphenyl)thieno[2,3-b]pyridine-2-carboxamide], the concentration giving a half-maximal response (EC50) (with DENV-1; in the test with DENV-3; with DENV-4; in test [1]) was less than 5 µM in each case.

Take `Cc1ccc(NC(=O)c2sc3nc(-c4ccc(C)cc4)ccc3c2N)cc1` [Compound 636, 3-amino-N,6-bis(p-tolyl)thieno[2,3-b] pyridine-2-carboxamide]: the EC50 (in the test with DENV-1; with DENV-3; in the test on DENV-4; in test [1]) was less than 5 µM each time.

As to `Nc1c(C(=O)Nc2ccc(C(F)F)cc2)sc2nc(-c3ccc(Cl)cc3)ccc12` [Compound 337, 3-amino-6-(4-chlorophenyl)-N-[4-(difluoromethyl)phenyl]thieno[2,3-b]pyridine-2-carboxamide], the EC50 (in the test with DENV-1; in the test with DENV-3; with DENV-4; in test [1]) was less than 5 µM throughout.

Turning to `Nc1c(C(=O)Nc2ccccc2Br)sc2nc(-c3ccc(Cl)cc3)ccc12` [Compound 341, 3-amino-N-(2-bromophenyl)-6-(4-chlorophenyl) thieno[2,3-b] pyridine-2-carboxamide], the 50% effective concentration (EC50) (with DENV-1; with DENV-3; in the test on DENV-4; in test [1]) was less than 5 µM in each case.

Take `CN(C(=O)c1sc2nc(-c3cccs3)ccc2c1N)c1cccc(C(F)(F)F)c1` [Compound 322, 3-amino-N-methyl-6-(2-thienyl)-N-[3-(trifluoromethyl)phenyl]thieno[2,3-b]pyridine-2-carboxamide]: the EC50 (in the test on DENV-1; with DENV-3; in the test with DENV-4; in test [1]) was less than 5 µM in each case.

`Nc1c(C(=O)Nc2ccc(F)c(F)c2)sc2nc(-c3cc(Cl)ccc3Cl)ccc12` [Compound 630, 3-amino-6-(2,5-dichlorophenyl)-N-(3,4-difluorophenyl)thieno[2,3-b]pyridine-2-carboxamide]: the EC50 (with DENV-1; with DENV-3; in the test on DENV-4; in test [1]) was less than 5 µM in each case.

Take `COc1cccc(-c2ccc3c(N)c(C(=O)Nc4ccccc4C(F)(F)F)sc3n2)c1` [Compound 449, 3-amino-6-(3-methoxyphenyl)-N-[2-(trifluoromethyl)phenyl]thieno[2,3-b] pyridine-2-carboxamide]: the half-maximal effective concentration (EC50) (with DENV-1; with DENV-3; with DENV-4; in test [1]) was less than 5 µM throughout.

For `Nc1c(C(=O)Nc2nnc(-c3ccccc3)s2)sc2nc3c(cc12)C(=O)CCCC3` [Compound 328], the EC50 (commonly the concentration that produces a half-maximal response) in the test on DENV-1 was less than 5 µM; with DENV-3, 5 to 25 µM; with DENV-4, less than 5 µM; in test [1] it was less than 5 µM.
